Blank lines part the entries; values can stand above or below the compound they belong to.
How the values were obtained:
Assay type in all cases: physicochemical
[1] = pKa and pH dye properties of amino-phenolphthaleins bound to Sepharose 6B; details: dye bound to Sepharose 6B
Method: The amino-phenolphthaleins of Examples 2A-2E were reacted with a solid support by the following general procedure:
Place 0.5 g of Sepharose 6B (commercially available from Pharmacia Inc., Piscataway, N.J. as order number 17-0480-01) into deionized water for 30-45 min. to swell. Collect the white gel. In reaction beaker, place 0.3-0.5 g of an appropriate amino-phthalein into 3 ml dioxane and 20 ml of carbonate buffer (pH 10.5). Add the gel and let sit at 35° for 20 hrs. Collect the gel on a glass frit and wash with water, ethanol, acetone and high and low pH buffers. Dialyze the gel against deionized water for 2 days.

[2] = pKa and color change with pH of carboxy-phenolphthaleins bound to Sepharose 4B; details: dye bound to Sepharose 4B
Method: Place 0.5 g of Sepharose 4B (commercially available from Pharmacia Inc., Piscataway, N.J. as order number 17-0470-01) in 0.5M NaCl for 1 hour and then collect and set aside. Place the appropriate carboxy-phenolphthalein (1.3 mmol) in about 1 ml dimethylformamide and cool to 0° C. in a ice-ethanol bath. […] Leave the reaction at this cold temperature for 15-20 minutes. Then add the Sepharose 4B gel to reaction along with a scoop of benzyltributyl ammonium bromide and 30 ml of borate buffer (pH 9). Place the reaction flask on a shaker overnight at room temperature. Collect the support on a frit and wash with volumes of water, ethanol, acetone and buffered water. Finally, dialyze the support against water for 1-2 days.

[3] = pKa of carboxy-sulfonephthaleins bound to aminoethyl cellulose; details: dye bound to aminoethyl cellulose
Method: The carboxy-sulfonephthaleins of Examples 8A-8C were reacted with a solid support by the following general procedure:
Place 0.5 g aminoethyl cellulose (commercially available from Serva Biochemicals, Westbury, N.Y. 11590 as order no. 45015) in 30 ml of deionized water and set aside. Place 0.2 g of an appropriate dye in 25 ml of pyridine-HCl buffer (pH 5.8). Add the filtered cellulose to this reaction along with 83 mg of N-ethyl-N'-(3-dimethylaminopropyl)carbodimidehydrochloride (EDC). Place the reaction on a shaker overnight at room temperature. Collect the support and wash with large volumes of water, ethanol, acetone, DMF and pH buffers over the course of 2 days. Collect a final colored support. Also, this same procedure was run using aminopropyl silica beads (Serva #43660) in place of cellulose.
The pKa 's of the carboxy-sulfonephenolphthaleins bound to the solid support (aminoethyl cellulose) was determined and are set forth in Table 4 below: […]

pKa [1]: approximately 10
SMILES: Nc1cccc2c1C(=O)OC2(c1ccc(O)cc1)c1ccc(O)cc1 [Example 2A]

pKa [1]: ~12
SMILES: Cc1cc(C2(c3cc(C)c(O)cc3C)OC(=O)c3c(N)cccc32)c(C)cc1O [Example 2B]

retention of dye properties after coupling [1]: no longer retained their dye properties
SMILES: Nc1cccc2c1C(=O)OC2(c1ccc(O)c(Br)c1)c1ccc(O)c(Br)c1 [Example 2C]

retention of dye properties after coupling [1]: no longer retained their dye properties
SMILES: Nc1cccc2c1C(=O)OC2(c1ccc(O)c(Cl)c1)c1ccc(O)c(Cl)c1 [Example 2D]

pKa [2]: 10
SMILES: O=C(O)c1ccc2c(c1)C(=O)OC2(c1ccc(O)cc1)c1ccc(O)cc1 [Example 4A]

pKa [2]: > 10
SMILES: O=C(O)c1ccc2c(c1)C(=O)OC2(c1ccc(O)c2ccccc12)c1ccc(O)c2ccccc12 [Example 4E]

SMILES: O=C(O)c1ccc2c(c1)C(=O)OC2(c1cc([N+](=O)[O-])c(O)cc1[N+](=O)[O-])c1cc([N+](=O)[O-])c(O)cc1[N+](=O)[O-] [Example 4G]
pKa [2]: ~ 4

SMILES: O=C(O)c1ccc2c(c1)C(=O)OC2(c1cc(Cl)c(O)c([N+](=O)[O-])c1)c1cc(Cl)c(O)c([N+](=O)[O-])c1 [Example 4H]
pKa [2]: ~ 5.5

pKa [2]: ~ 7
SMILES: O=C(O)c1ccc2c(c1)C(=O)OC2(c1ccc(O)c(O)c1)c1ccc(O)c(O)c1 [Example 4I]

SMILES: O=C(O)c1ccc2c(c1)C(=O)OC2(c1cc(O)c(O)cc1[N+](=O)[O-])c1cc(O)c(O)cc1[N+](=O)[O-] [Example 4J]
pKa [2]: ~ 6

pKa [3]: 7.6
SMILES: O=C(O)c1ccc2c(c1)S(=O)(=O)OC2(c1ccc(O)cc1)c1ccc(O)cc1 [Example 8A]

pKa [3]: 6.2
SMILES: O=C(O)c1ccc2c(c1)S(=O)(=O)OC2(c1ccc(O)c(Cl)c1)c1ccc(O)c(Cl)c1 [Example 8B]

pKa [3]: 9.2
SMILES: Cc1cc(O)c(C(C)C)cc1C1(c2cc(C(C)C)c(O)cc2C)OS(=O)(=O)c2cc(C(=O)O)ccc21 [Example 8C]

— patent US5384411A, “Immobilization of PH-sensitive dyes to solid supports” (Hewlett-Packard Company, priority 1991, dated 1995)
